Test results taken from US7851474B2, “Dipiperazinyl ketones and related analogues” (Neurogen Corporation, priority 2005, dated 2010).

Molecular target: T1, chimeric human H3 receptor (Homo sapiens, UniProt Q9Y5N1, E19D)
T1 construct: made in house; host or cells: Sf9 insect cells (baculovirus infection); P2 membrane preparation
Assay: Chimeric human H3 receptor GTP binding assay (agonist-stimulated GTP-gamma35S binding, Example 7)
Assay type: biochemical
Conditions: Table II, "*" in Ki; assay of Example 7; read-out: Ki
How it was run: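 IC50 values come from non-linear regression of dose-response curves of filter-bound GTP-gamma^35S, counted by scintillation. Membranes were from infected Sf9 cells carrying receptor plus G-protein subunits, 35 μg/tube, with 10 μM GDP present.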

T1 sequence (Q9Y5N1 with tags, fused parts or gaps E19D): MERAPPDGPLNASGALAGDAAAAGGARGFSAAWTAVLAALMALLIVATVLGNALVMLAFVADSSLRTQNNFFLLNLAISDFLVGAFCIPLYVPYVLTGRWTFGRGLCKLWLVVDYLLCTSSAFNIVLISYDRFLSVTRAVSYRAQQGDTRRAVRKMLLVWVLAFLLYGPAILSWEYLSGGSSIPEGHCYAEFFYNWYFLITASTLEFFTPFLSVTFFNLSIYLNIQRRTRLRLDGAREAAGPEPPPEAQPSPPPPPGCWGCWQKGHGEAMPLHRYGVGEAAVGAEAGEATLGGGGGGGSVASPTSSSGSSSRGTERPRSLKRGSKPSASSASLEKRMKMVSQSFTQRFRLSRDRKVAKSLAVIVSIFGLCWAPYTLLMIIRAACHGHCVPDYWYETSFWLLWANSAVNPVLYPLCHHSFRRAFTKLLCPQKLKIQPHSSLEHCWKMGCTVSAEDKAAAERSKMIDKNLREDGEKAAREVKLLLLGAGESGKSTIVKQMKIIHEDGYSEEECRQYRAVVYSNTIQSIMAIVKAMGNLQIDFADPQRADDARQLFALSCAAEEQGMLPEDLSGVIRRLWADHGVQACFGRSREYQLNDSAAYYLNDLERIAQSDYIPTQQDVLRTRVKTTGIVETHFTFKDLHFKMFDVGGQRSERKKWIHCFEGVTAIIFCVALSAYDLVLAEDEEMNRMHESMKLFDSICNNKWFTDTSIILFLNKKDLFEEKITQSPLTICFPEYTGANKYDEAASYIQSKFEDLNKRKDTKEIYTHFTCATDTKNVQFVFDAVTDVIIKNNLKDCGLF

Ki, < 1000 nM:
Cc1cccc(N2CCN(CC(=O)N3CCN(C4CCC4)CC3)CC2)c1C [Compound 672, 1-cyclobutyl-4-{[4-(2,3-dimethylphenyl)piperazin-1-yl]acetyl}piperazine]
Cc1cc(C)c(-c2ccc(N3CCN(CC(=O)N4CCN(C5CCC5)CC4)CC3)cc2)c(C)c1 [Compound 673, 1-cyclobutyl-4-{[4-(2′,4′,6′-trimethylbiphenyl-4-yl)piperazin-1-yl]acetyl}piperazine]
O=C(CN1CCN(c2ccc(-c3ccc(Cl)cc3Cl)cc2)CC1)N1CCN(C2CCC2)CC1 [Compound 675, 1-cyclobutyl-4-{[4-(2′,4′-dichlorobiphenyl-4-yl)piperazin-1-yl]acetyl}piperazine]
O=C(CN1CCN(c2ccc(-c3ccc(F)cc3F)cc2)CC1)N1CCN(C2CCC2)CC1 [Compound 676, 1-cyclobutyl-4-{[4-(2′,4′-difluorobiphenyl-4-yl)piperazin-1-yl]acetyl}piperazine]
COc1ccc(-c2ccc(N3CCN(CC(=O)N4CCN(C5CCC5)CC4)CC3)cc2)c(OC)c1 [Compound 678, 1-cyclobutyl-4-{[4-(2′,4′-dimethoxybiphenyl-4-yl)piperazin-1-yl]acetyl}piperazine]
O=C(CN1CCN(c2ccc(-c3cc(Cl)ccc3Cl)cc2)CC1)N1CCN(C2CCC2)CC1 [Compound 682, 1-cyclobutyl-4-{[4-(2′,5′-dichlorobiphenyl-4-yl)piperazin-1-yl]acetyl}piperazine]
COc1cc(F)c(-c2ccc(N3CCN(CC(=O)N4CCN(C5CCC5)CC4)CC3)cc2)cc1F [Compound 683, 1-cyclobutyl-4-{[4-(2′,5′-difluoro-4′-methoxybiphenyl-4-yl)piperazin-1-yl]acetyl}piperazine]
O=C(CN1CCN(c2ccc(-c3cc(F)ccc3F)cc2)CC1)N1CCN(C2CCC2)CC1 [Compound 685, 1-cyclobutyl-4-{[4-(2′,5′-difluorobiphenyl-4-yl)piperazin-1-yl]acetyl}piperazine]
COc1ccc(OC)c(-c2ccc(N3CCN(CC(=O)N4CCN(C5CCC5)CC4)CC3)cc2)c1 [Compound 687, 1-cyclobutyl-4-{[4-(2′,5′-dimethoxybiphenyl-4-yl)piperazin-1-yl]acetyl}piperazine]
COc1cccc(OC)c1-c1ccc(N2CCN(CC(=O)N3CCN(C4CCC4)CC3)CC2)cc1 [Compound 695, 1-cyclobutyl-4-{[4-(2′,6′-dimethoxybiphenyl-4-yl)piperazin-1-yl]acetyl}piperazine]
Cc1cccc(C)c1-c1ccc(N2CCN(CC(=O)N3CCN(C4CCC4)CC3)CC2)cc1 [Compound 697, 1-cyclobutyl-4-{[4-(2′,6′-dimethylbiphenyl-4-yl)piperazin-1-yl]acetyl}piperazine]
Cc1cccc(C)c1N1CCN(CC(=O)N2CCN(C3CCC3)CC2)CC1 [Compound 698, 1-cyclobutyl-4-{[4-(2,6-dimethylphenyl)piperazin-1-yl]acetyl}piperazine]
CCOc1ccccc1-c1ccc(N2CCN(CC(=O)N3CCN(C4CCC4)CC3)CC2)cc1 [Compound 700, 1-cyclobutyl-4-{[4-(2′-ethoxybiphenyl-4-yl)piperazin-1-yl]acetyl}piperazine]
Cc1ccc(-c2ccc(N3CCN(CC(=O)N4CCN(C5CCC5)CC4)CC3)cc2)c(F)c1 [Compound 704, 1-cyclobutyl-4-{[4-(2′-fluoro-4′-methylbiphenyl-4-yl)piperazin-1-yl]acetyl}piperazine]
Cc1ccc(F)c(-c2ccc(N3CCN(CC(=O)N4CCN(C5CCC5)CC4)CC3)cc2)c1 [Compound 705, 1-cyclobutyl-4-{[4-(2′-fluoro-5′-methylbiphenyl-4-yl)piperazin-1-yl]acetyl}piperazine]
O=C(CN1CCN(c2ccc(-c3ccccc3F)cc2)CC1)N1CCN(C2CCC2)CC1 [Compound 707, 1-cyclobutyl-4-{[4-(2′-fluorobiphenyl-4-yl)piperazin-1-yl]acetyl}piperazine]
O=C(CN1CCN(c2ccccc2F)CC1)N1CCN(C2CCC2)CC1 [Compound 708, 1-cyclobutyl-4-{[4-(2-fluorophenyl)piperazin-1-yl]acetyl}piperazine]
CC(C)c1ccccc1-c1ccc(N2CCN(CC(=O)N3CCN(C4CCC4)CC3)CC2)cc1 [Compound 709, 1-cyclobutyl-4-{[4-(2′-isopropylbiphenyl-4-yl)piperazin-1-yl]acetyl}piperazine]
COc1ccc(C)cc1-c1ccc(N2CCN(CC(=O)N3CCN(C4CCC4)CC3)CC2)cc1 [Compound 710, 1-cyclobutyl-4-{[4-(2′-methoxy-5′-methylbiphenyl-4-yl)piperazin-1-yl]acetyl}piperazine]
COc1ccccc1-c1ccc(N2CCN(CC(=O)N3CCN(C4CCC4)CC3)CC2)cc1 [Compound 712, 1-cyclobutyl-4-{[4-(2′-methoxybiphenyl-4-yl)piperazin-1-yl]acetyl}piperazine]
O=C(CN1CCN(c2ccc(-c3ccccc3Oc3ccccc3)cc2)CC1)N1CCN(C2CCC2)CC1 [Compound 719, 1-cyclobutyl-4-{[4-(2′-phenoxybiphenyl-4-yl)piperazin-1-yl]acetyl}piperazine]
CC(Oc1ccccc1)C(=O)N1CCN(CC(=O)N2CCN(C3CCC3)CC2)CC1 (stereo not shown) [Compound 720, 1-cyclobutyl-4-{[4-(2-phenoxypropanoyl)piperazin-1-yl]acetyl}piperazine]
COc1cc(-c2ccc(N3CCN(CC(=O)N4CCN(C5CCC5)CC4)CC3)cc2)cc(OC)c1OC [Compound 725, 1-cyclobutyl-4-{[4-(3′,4′,5′-trimethoxybiphenyl-4-yl)piperazin-1-yl]acetyl}piperazine]
O=C(CN1CCN(c2ccc(-c3ccc(Cl)c(Cl)c3)cc2)CC1)N1CCN(C2CCC2)CC1 [Compound 727, 1-cyclobutyl-4-{[4-(3′,4′-dichlorobiphenyl-4-yl)piperazin-1-yl]acetyl}piperazine]
O=C(CN1CCN(c2ccc(-c3ccc(F)c(F)c3)cc2)CC1)N1CCN(C2CCC2)CC1 [Compound 730, 1-cyclobutyl-4-{[4-(3′,4′-difluorobiphenyl-4-yl)piperazin-1-yl]acetyl}piperazine]
COc1ccc(-c2ccc(N3CCN(CC(=O)N4CCN(C5CCC5)CC4)CC3)cc2)cc1OC [Compound 732, 1-cyclobutyl-4-{[4-(3′,4′-dimethoxybiphenyl-4-yl)piperazin-1-yl]acetyl}piperazine]
COc1ccc(N2CCN(CC(=O)N3CCN(C4CCC4)CC3)CC2)cc1OC [Compound 733, 1-cyclobutyl-4-{[4-(3,4-dimethoxyphenyl)piperazin-1-yl]acetyl}piperazine]
Cc1ccc(-c2ccc(N3CCN(CC(=O)N4CCN(C5CCC5)CC4)CC3)cc2)cc1C [Compound 735, 1-cyclobutyl-4-{[4-(3′,4′-dimethylbiphenyl-4-yl)piperazin-1-yl]acetyl}piperazine]
